Assay results from ChEMBL document CHEMBL4354883, “Design, Synthesis, and Biological Evaluation of HSP90 Inhibitor-SN38 Conjugates for Targeted Drug Accumulation” (J Med Chem, 2020).
Each block holds one compound with its values, some of them ahead of it. Activity calls are given as the source filed them. The rule behind the calls is not given here.

Columns and labels:
[1] = target: Heat shock protein HSP 90-alpha (Homo sapiens, UniProt P07900); experiment: biochemical
Description: Inhibition of recombinant human full length HSP90 alpha expressed in Escherichia coli cells after 1 hr by fluorescence polarization assay

[2] = Half life of compound in PBS buffer at pH 7.4 at 50 uM by HPLC analysis; format: physicochemical
[3] = Half life in human plasma at 25 uM by HPLC analysis; format: ADME, cell-free
[4] = Half life in mouse plasma at 25 uM by HPLC analysis; format: ADME, cell-free
[5] = Half life of compound in PBS buffer at pH 6.0 at 50 uM by HPLC analysis; format: physicochemical
HCT-116 [6] = experiment: Induction of cell cycle arrest in human HCT116 cells assessed as accumulation at G2/M phase after 24 hrs by RNase A/PI-staining based flow cytometric analysis; format: functional
A549 [7] = experiment: Downregulation of TOP1 expression in human A549 cells after 24 hrs by Western blot analysis; format: functional, cell-based
[8] = AUC(0 to infinity) in BALB/c mouse at 50 mg/kg, iv after 5 to 24 hrs by LC-MS/MS analysis; format: ADME, organism-based; set-up: dose 50 mg/kg, route intravenous, time infinity; settings: in vivo
[9] = Drug uptake in human A549 cells assessed as endocytosis-mediated total cellular drug internalization at 5 uM after 12 hrs by LC-MS/MS analysis relative to SN38; format: ADME, cell-based; settings: a549, 12 h
[10] = target: T1, DNA topoisomerase 1 (Homo sapiens) (UniProt P11387); experiment: Inhibition of topoisomerase 1 in human A549 cells assessed as increase in phosphorylated KAP1 expression after 24 hrs by Western blot analysis; format: cell-based
T1 sequence (whole entry): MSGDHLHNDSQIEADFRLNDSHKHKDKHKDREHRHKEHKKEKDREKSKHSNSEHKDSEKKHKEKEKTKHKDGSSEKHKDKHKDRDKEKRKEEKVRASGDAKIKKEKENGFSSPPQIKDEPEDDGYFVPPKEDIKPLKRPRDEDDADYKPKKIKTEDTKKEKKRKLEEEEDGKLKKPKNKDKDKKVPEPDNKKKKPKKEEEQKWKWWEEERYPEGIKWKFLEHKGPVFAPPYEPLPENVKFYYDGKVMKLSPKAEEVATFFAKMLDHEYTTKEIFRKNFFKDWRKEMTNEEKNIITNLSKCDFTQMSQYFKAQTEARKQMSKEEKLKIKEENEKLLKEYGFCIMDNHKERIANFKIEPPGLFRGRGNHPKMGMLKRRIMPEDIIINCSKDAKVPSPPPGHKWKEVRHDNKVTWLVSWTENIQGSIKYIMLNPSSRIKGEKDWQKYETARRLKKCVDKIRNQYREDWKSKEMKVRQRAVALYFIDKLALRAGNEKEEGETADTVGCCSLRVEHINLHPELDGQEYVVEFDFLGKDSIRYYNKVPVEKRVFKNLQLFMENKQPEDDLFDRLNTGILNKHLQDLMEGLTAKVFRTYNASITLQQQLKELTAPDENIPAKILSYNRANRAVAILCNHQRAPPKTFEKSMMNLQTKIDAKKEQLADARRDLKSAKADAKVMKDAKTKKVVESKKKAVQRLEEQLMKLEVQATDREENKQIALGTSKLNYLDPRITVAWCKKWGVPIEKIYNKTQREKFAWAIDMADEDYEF

[11] = Clearance in BALB/c mouse at 50 mg/kg, iv after 5 to 24 hrs by LC-MS/MS analysis; format: ADME, organism-based; settings: in vivo
CAPAN-1 [12] = experiment: Induction of cell cycle arrest in human Capan1 cells assessed as accumulation at G2/M phase after 24 hrs by RNase A/PI-staining based flow cytometric analysis; format: functional
Heat shock protein HSP90 [13] = target: T2, Heat shock protein HSP90 (Homo sapiens, UniProt P07900+P08238); experiment: Inhibition of HSP90 in human A549 cells assessed as upregulation of HSP70 expression at 0.04 to 5 uM after 24 hrs by Western blot analysis; format: cell-based
Heat shock protein HSP90 [14] = target: T2, Heat shock protein HSP90; experiment: Inhibition of HSP90 in human HCT116 cells assessed as downregulation of AKT protein expression after 24 hrs by Western blot analysis; format: cell-based
[15] = Half life in human liver microsomes at 1 uM preincubated for 5 mins followed by NADPH addition and measured up to 360 mins by LC-MS/MS analysis; format: ADME, Microsome
HCT-116 [16] = experiment: Downregulation of TOP1 expression in human HCT116 cells after 24 hrs by Western blot analysis; format: functional, cell-based
A549 [17] = experiment: Ratio of prodrug release in human A549 cells assessed as increase in 7-ethyl-10-hydroxycamptothecin level at 5 uM after 12 hrs by LC-MS/MS analysis to prodrug release in human A549 cells assessed as increase in 7-ethyl-10-hydroxycamptothecin level at 5 uM after 1 hr by LC-MS/MS analysis; format: ADME, cell-based; settings: a549, 5 µM
[18] = Drug uptake in human A549 cells assessed as endocytosis-mediated total cellular drug internalization at 5 uM after 12 hrs by LC-MS/MS analysis relative to irinotecan; format: ADME, cell-based; settings: a549, 12 h
[19] = Metabolic stability in human liver microsomes assessed as compound remaining at 1 uM preincubated for 5 mins followed by NADPH addition and measured after 60 mins by LC-MS/MS analysis; format: ADME, Microsome; settings: read-out: Stability
[20] = Drug uptake in human A549 cells assessed as eHSP90-mediated total cellular drug internalization at 5 uM after 12 hrs by LC-MS/MS analysis; format: ADME, cell-based; settings: a549, 12 h
L02 = experiment: Cytotoxicity agains human HL7702 cells assessed as reduction in cell viability after 72 hrs by SRB assay; format: cell-based; settings: L02, 72 h
[21] = Intrinsic clearance in human liver microsomes at 1 uM preincubated for 5 mins followed by NADPH addition and measured up to 360 mins by LC-MS/MS analysis; format: ADME, Microsome; settings: 6 h
[22] = Toxicity in mouse xenografted with human HCT116 cells assessed as body weight loss at 50 mg/kg, iv for 5 consecutive days per week and measured every 3 to 4 days up to 14 days relative to control; format: organism-based; settings: in vivo
MIA PaCa-2 = experiment: Antiproliferative activity against human MIAPaCa2 cells assessed as reduction in cell viability after 72 hrs by SRB assay; format: functional, cell-based; settings: MIA PaCa-2, 72 h
A549 [23] = experiment: Antiproliferative activity against human A549 cells assessed as reduction in cell viability after 72 hrs by SRB assay; format: functional, cell-based; settings: A549, 72 h
HCT-116 [24] = experiment: Antiproliferative activity against human HCT116 cells assessed as reduction in cell viability after 72 hrs by SRB assay; format: functional, cell-based; settings: HCT-116, 72 h
[25] = Half life in BALB/c mouse at 50 mg/kg, iv after 5 to 24 hrs by LC-MS/MS analysis; format: ADME, organism-based; settings: in vivo
Heat shock protein HSP90 [26] = target: T2, Heat shock protein HSP90; experiment: Drug uptake in human A549 cells assessed as eHSP90-mediated drug internalization by measuring blue fluorescence in PBS solution at 5 uM after 1 to 12 hrs by confocal laser scanning microscopic analysis; format: ADME, cell-based; settings: a549, 5 µM, TDE = time-dependent effect
[27] = Drug uptake in human A549 cells assessed as blue shift in absorption spectrum at 5 uM by UV-visible absorption spectral analysis; format: ADME, cell-based; settings: a549, 5 µM
[28] = Drug uptake in human A549 cells assessed as blue fluorescence at 5 uM after 12 hrs by confocal laser scanning microscopic analysis; format: ADME, cell-based; settings: a549, 12 h
[29] = Apparent volume of distribution at steady state in BALB/c mouse at 50 mg/kg, iv after 5 to 24 hrs by LC-MS/MS analysis; format: ADME, organism-based; settings: in vivo, read-out: Vdss(app)
A549 [30] = experiment: Induction of cell cycle arrest in human A549 cells assessed as accumulation at G2/M phase after 24 hrs by RNase A/PI-staining based flow cytometric analysis; format: functional
Heat shock protein HSP90 [31] = target: T2, Heat shock protein HSP90; experiment: Inhibition of HSP90 in human HCT116 cells assessed as upregulation of HSP70 expression at 0.04 to 5 uM after 24 hrs by Western blot analysis; format: cell-based
Heat shock protein HSP90 [32] = target: T2, Heat shock protein HSP90; experiment: Inhibition of HSP90 in human A549 cells assessed as downregulation of AKT protein expression after 24 hrs by Western blot analysis; format: cell-based
[33] = Drug uptake in human A549 cells assessed as maximum emission peaks at 430 nm at 5 uM by fluorescence emission spectral analysis; format: ADME, cell-based; settings: a549, 5 µM
CAPAN-1 [34] = experiment: Antiproliferative activity against human Capan1 cells assessed as reduction in cell viability after 72 hrs by SRB assay; format: functional, cell-based; settings: CAPAN-1, 72 h
[35] = target: T1, DNA topoisomerase 1 (Homo sapiens); experiment: Inhibition of topoisomerase 1 in human HCT116 cells assessed as increase in phosphorylated KAP1 expression after 24 hrs by Western blot analysis; format: cell-based
CAPAN-1 [36] = experiment: Induction of cell cycle arrest in human Capan1 cells at 3 nM after 24 hrs by RNase A/PI-staining based flow cytometric analysis; format: functional
HCT-116 [37] = experiment: Induction of cell cycle arrest in human HCT116 cells at 3 nM after 24 hrs by RNase A/PI-staining based flow cytometric analysis; format: functional
HCT-116 [38] = experiment: Downregulation of TOP1 expression in human HCT116 cells at 0.04 uM after 24 hrs by Western blot analysis; format: functional, cell-based
A549 [39] = experiment: Induction of cell cycle arrest in human A549 cells at 3 to 10 nM after 24 hrs by RNase A/PI-staining based flow cytometric analysis; format: functional
A549 [40] = experiment: Downregulation of TOP1 expression in human A549 cells at 0.04 uM after 24 hrs by Western blot analysis; format: functional, cell-based

SMILES: CCc1c2c(nc3ccc(OC(=O)N4CCC(NC(=O)CNc5cc(-n6nc(C(F)(F)F)c7c6CC(C)(C)CC7=O)ccc5C(N)=O)CC4)cc13)-c1cc3c(c(=O)n1C2)COC(=O)[C@]3(O)CC
IC50 [1]: 1260 nM | half-life at 50 µM [2]: > 24 h | half-life at 25 µM [3]: > 24 h | half-life at 25 µM [4]: > 24 h | half-life at 50 µM [5]: > 24 h

AUC(0-inf) [8]: 151 µg·h/mL | fold change (FC) [9]: 1.6 to 1.9 | inhibition [10]: Dose-dependent effect | clearance [11]: 5.51 mL/min/kg | inhibition (Heat shock protein HSP90 [13]): Active | inhibition (Heat shock protein HSP90 [14]): Dose-dependent effect | half-life at 1 µM [15]: 2.4 h | IC50 [1]: 70 nM | Ratio (A549 [17]): 4.3 | fold change (FC) [18]: 2.8 to 3.8 | remaining at 1 h, 1 µM [19]: 75% | Drug uptake [20]: Active | half-life at 50 µM [2]: 14 h | CLH [21]: 5.3 mL/min/kg | half-life at 25 µM [3]: > 24 h | IC50 (MIA PaCa-2): 205 nM | IC50 (A549 [23]): 324 nM | IC50 (HCT-116 [24]): 83 nM | half-life [25]: 1.51 h | Drug uptake (Heat shock protein HSP90 [26]): Tde | Drug uptake [27]: Active | Drug uptake [28]: Active | Vd [29]: 0.1 L/kg | half-life at 25 µM [4]: 17 h | half-life at 50 µM [5]: > 24 h | inhibition (Heat shock protein HSP90 [31]): Active | inhibition (Heat shock protein HSP90 [32]): Dose-dependent effect | Drug uptake [33]: Active | inhibition [35]: Dose-dependent effect
SMILES: CCc1c2c(nc3ccc(O)cc13)-c1cc3c(c(=O)n1C2)COC(=O)[C@@]3(CC)OC(=O)CCNC(=O)c1noc(-c2cc(C(C)C)c(O)cc2O)c1-c1ccc(CN2CCOCC2)cc1
Activity (HCT-116 [6]): Dose-dependent effect | TOP1 downregulation (A549 [7]): Dose-dependent effect | Activity (CAPAN-1 [12]): Dose-dependent effect | inhibition (HCT-116 [16]): Dose-dependent effect | IC50 (L02): 7890 nM | Activity [22]: < 20% | Activity (A549 [30]): Dose-dependent effect | IC50 (CAPAN-1 [34]): 206 nM

IC50 (MIA PaCa-2): 13 nM | IC50 (A549 [23]): 11 nM | IC50 (HCT-116 [24]): 4 nM | Drug uptake [27]: Active | Drug uptake [28]: Active | Drug uptake [33]: Active
SMILES: CCc1c2c(nc3ccc(O)cc13)-c1cc3c(c(=O)n1C2)COC(=O)[C@]3(O)CC [7-ETHYL-10-HYDROXYCAMPTOTHECIN]
Activity (CAPAN-1 [36]): Active | IC50 (L02): 18 nM | Activity (HCT-116 [37]): Active | inhibition (HCT-116 [38]): Active | Activity (A549 [39]): Active | inhibition (A549 [40]): Active | IC50 (CAPAN-1 [34]): 8 nM
